# Tested on: human Gal-alpha1,3-Gal-specific antibodies
# Experiment: Glycosylated peptide competitive assay on Gal-BSA coated plates with human sera IB72
# Type: binding
# Settings: mixed with human sera, positive control
# Description: To further evaluate the ability of the glycosylated specificity exchangers to bind to a pathogen, a glycosylated peptide competitive assay was performed using the most reactive human sera (IB72). In brief, Gal-alpha-1,3-Gal-labeled bovine serum albumin (Gal-BSA) was coated onto 96-well microplates in sodium carbonate buffer (pH: 9.6) at +4° C. overnight. Dilutions of human sera and dilutions of glyco-peptides (glycosylated HIV-specific ligand/receptor specificity exchangers or Gal-BSA) or non-glycosylated peptides (HIV-specific ligand/receptor specificity exchangers or BSA) were preincubated in phosphate-buffered saline (PBS) containing 1% bovine albumin, 2% goat serum and 0.05% Tween 20 at 37° C. for 1 h. The mixture was then added to the coated plates and incubated at 37° C. for 1 h, then washed 3 times with phosphate-buffered saline (PBS) containing 0.05% Tween 20 (pH: 7.4).
# Bound antibodies were indicated with goat anti-human polyvalent Ig, conjugated with alkaline phosphatase. The plates were incubated and washed as described above. Plates were developed with phosphatase substrate at room temperature for 30 min, stopped with 1 M NaOH. Optical density (OD) at 405 nm/650 nm was determined to quantify the inhibition. […] Thus, specificity exchangers that bind Gal-alpha1,3-Gal-specific antibodies had been generated. […]
substance,measurement,value
"Gal-alpha-1,3-Gal-labeled bovine serum albumin [Gal-BSA]",inhibition of human antibody binding to Gal-BSA,100%

# From US20090092631A1, “GLYCOSYLATED SPECIFICITY EXCHANGERS THAT INDUCE AN ANTIBODY DEPENDENT CELLULAR CYTOTOXICITY (ADCC) RESPONSE” (priority 2007, published 2009)
